According to patent publication US9957230B2, “Synergistic compositions” (Cadila Healthcare Limited, priority 2013, dated 2018):

Columns and labels:
Swiss albino mice = test: Triglyceride lowering effects of various salts in Swiss albino mice; type: in vivo; details: dose equivalent to 1 mg/kg free acid; for Serum triglycerides (mg/dl) Day 0: Day 0 (pretreatment); for Serum triglycerides (mg/dl) Day 0 / Serum triglycerides (mg/dl) Day 6: male Swiss albino mice; for Serum triglycerides (mg/dl) Day 6: Day 6, one hr after dose; for % Change Vs control: serum triglycerides vs vehicle control after 6 days; for % Change Day 6 vs Day 0: serum triglycerides
Method: Comparative Efficacy Study of (Triglyceride Lowering Effects) of Various Salts of Compound (Ia) in Swiss Albino Mice.
The in-vivo efficacy of compound (I) was evaluated in Swiss albino mice. Anti-dyslipidemic drugs have been reported to lower circulating levels of triglyceride in Swiss albino mice through their effect on genes involved in the peroxisomal fatty acid beta oxidation via PPAR alpha agonism. Therefore, this species is preferred for evaluation of their efficacy in lowering circulating triglyceride (TG) levels.
In this experiment, six to eight week old male Swiss albino mice were issued and kept for acclimatization. Near the end of the acclimatization period, animals judged to be suitable for testing were bled under light ether anesthesia and serum samples were analyzed for Serum triglyceride levels.
Test compound was formulated at specified doses in vehicle (10% Polyethylene glycol (PEG) 400+90% of 0.5% Sodium Carboxy methyl cellulose). The animals were dosed orally, once daily in the morning during six days, starting from next day of grouping with vehicle or test compound. The animals were weighed prior to dosing, and based on these weights; the volume of administration was calculated. The volume of formulation administered to each mouse was 10 ml/kg body weight.
On day 6 one hr after the dose administration, blood (0.25 ml) was collected from retro-orbital sinus of the anaesthetized animals. Serum was separated by centrifugation. Serum was analyzed for triglyceride levels. Analysis for serum triglyceride levels was performed using a Spectrophotometer and commercially available kit. Calculations for determination of % change and % reduction in serum TG levels were performed using MS Excels sheet.

db/db mice = test: Oral glucose tolerance test in db/db mice (studies I and II); type: in vivo; details: Table 12, Compound (Ia) 0.1 mg/kg, Metformin 150 mg/kg p.o.
From the text: 8. […] 8. The treatment was given oral gavages once daily for 14 days.
The OGTT procedure followed is as given below—

[1] = Table 5, oral once daily 6 days
[2] = Table 3, oral once daily 6 days

Molecule	Serum triglycerides (mg/dl) Day 0 (Swiss albino mice; [1]) [mg/dL]	Serum triglycerides (mg/dl) Day 6 (Swiss albino mice; [1]) [mg/dL]	% Change Vs control (Swiss albino mice; Table 5, oral) [%]	% Change Day 6 vs Day 0 (Swiss albino mice; [1]) [%]	Serum triglycerides (mg/dl) Day 0 (Swiss albino mice; Table 7, po once daily 6 days) [mg/dL]	Serum triglycerides (mg/dl) Day 6 (Swiss albino mice; Table 7, po once daily 6 days) [mg/dL]	% Change Vs control (Swiss albino mice; Table 7, po) [%]	% Change Day 6 vs Day 0 (Swiss albino mice; Table 7, po once daily 6 days) [%]	also measured
(S) 2-Ethoxy-3-(4-{2-[2-methyl-5-(4-methylthiophenyl)-pyrrol-1-yl]-ethoxy}-phenyl)-propionic acid piperazine salt [Piperazine salt of Formula (I)]	91.0 ± 6.5	44.1 ± 1.9	−52.8 ± 3.7	−50.2 ± 4.0					
CCO[C@@H](Cc1ccc(OCCn2c(C)ccc2-c2ccc(SC)cc2)cc1)C(=O)O.OCCN(CCO)CCO [Triethanolamine salt of Formula (I)]					110.3 ± 7.5	33.0 ± 2.6	−65.3 ± 4.4	−68.9 ± 3.9	
(S) 2-Ethoxy-3-(4-{2-[2-methyl-5-(4-methylthiophenyl)-pyrrol-1-yl]-ethoxy}-phenyl)-propionic acid Dibenzylamine salt [Dibenzylamine salt of Formula (I)]	91.0 ± 6.7	42.1 ± 2.9	−54.4 ± 5.8	−51.8 ± 6.1					
CCO[C@@H](Cc1ccc(OCCn2c(C)ccc2-c2ccc(SC)cc2)cc1)C(=O)[O-].C[N+](C)(C)CCO [Choline salt of Formula (I), Choline Salt (i.e 2-Hydroxy-N,N,N-trimethylethanaminium hydroxide or choline hydroxide) of (S) 2-Ethoxy-3-(4-{2-[2-methyl-5-(4-methylthiophenyl)-pyrrol-1-ylethoxyphenylpropionic acid]					110.9 ± 7.7	47.6 ± 3.4	−51.0 ± 4.8	−56.0 ± 4.3	
(S) 2-Ethoxy-3-(4-{2-[2-methyl-5-(4-methylthiophenyl)-pyrrol-1-yl]-ethoxy}-phenyl)-propionic acid Meglumine salt [Maglumine salt of Formula (I)]					110.6 ± 9.1	32.4 ± 1.5	−66.5 ± 2.5	−70.0 ± 2.2	
CCO[C@@H](Cc1ccc(OCCn2c(C)ccc2-c2ccc(SC)cc2)cc1)C(=O)[O-].[K+] [Potassium Salt of formula (I), (S) 2-Ethoxy-3-(4-{2-[2-methyl-5-(4-methylthiophenyl)-pyrrol-1-yl]-ethoxy}-phenyl)-propionic acid potassium salt]									Serum triglycerides (mg/dl) Day 0 (Swiss albino mice; [2]): 119.0 ± 9.2 mg/dL; Serum triglycerides (mg/dl) Day 6 (Swiss albino mice; [2]): 44.8 ± 4.6 mg/dL; % Change Vs control (Swiss albino mice; Table 3, oral): −60.2 ± 6.0%; % Change Day 6 vs Day 0 (Swiss albino mice; [2]): −60.7 ± 6.0%
CCO[C@@H](Cc1ccc(OCCn2c(C)ccc2-c2ccc(SC)cc2)cc1)C(=O)[O-].[Na+] [Sodium Salt of Formula (I), (S) 2-Ethoxy-3-(4-{2-[2-methyl-5-(4-methylthiophenyl)-pyrrol-1-yl]-ethoxy}-phenyl)-propionic acid sodium salt]									Serum triglycerides (mg/dl) Day 0 (Swiss albino mice; [2]): 119.4 ± 11.9 mg/dL; Serum triglycerides (mg/dl) Day 6 (Swiss albino mice; [2]): 41.6 ± 1.8 mg/dL; % Change Vs control (Swiss albino mice; Table 3, oral): −63.1 ± 3.6%; % Change Day 6 vs Day 0 (Swiss albino mice; [2]): −63.5 ± 3.6%
Benzenepropanoic acid, α-ethoxy-4-[2-[2-methyl-5-[4-(methylthio) phenyl]-1H -pyrrol-1-yl] ethoxy]-, magnesium salt [Compound (Ia)]	91.4 ± 8.8	37.4 ± 3.2	−60.5 ± 3.5	−58.3 ± 3.7	111.1 ± 8.4	36.9 ± 2.9	−61.5 ± 4.6	−65.5 ± 4.2	Serum triglycerides (mg/dl) Day 0 (Swiss albino mice; [2]): 117.7 ± 13.8 mg/dL; Serum triglycerides (mg/dl) Day 6 (Swiss albino mice; [2]): 38.2 ± 4.1 mg/dL; % Change Vs control (Swiss albino mice; Table 3, oral): −66.1 ± 4.2%; % Change Day 6 vs Day 0 (Swiss albino mice; [2]): −66.5 ± 4.1%
(S) 2-Ethoxy-3-(4-{2-[2-methyl-5-(4-methylthiophenyl)-pyrrol-1-yl]-ethoxy}-phenyl)-propionic acid Zinc Salt [Zinc Salt of Formula (I)]									Serum triglycerides (mg/dl) Day 0 (Swiss albino mice; [2]): 119.1 ± 7.6 mg/dL; Serum triglycerides (mg/dl) Day 6 (Swiss albino mice; [2]): 68.6 ± 7.5 mg/dL; % Change Vs control (Swiss albino mice; Table 3, oral): −42.0 ± 4.2%; % Change Day 6 vs Day 0 (Swiss albino mice; [2]): −42.7 ± 4.2%
CCO[C@@H](Cc1ccc(OCCn2c(C)ccc2-c2ccc(SC)cc2)cc1)C(=O)O.NCCO [Ethanolamine salt of Formula (I)]					110.5 ± 7.5	42.5 ± 3.6	−56.9 ± 3.6	−61.3 ± 3.2	
CN(C)C(=N)N=C(N)N [Metformin, 1,1-Dimethylbiguanidine, reference compound]									% improvement in AUC glucose vs control (db/db mice; OGTT after 14 days of treatment): 20.4%; AUC Glucose (db/db mice; OGTT day 14, fasting, glucose load 2 gm/kg): 45255.9 mg·min/dL
(S) 2-Ethoxy-3-(4-{2-[2-methyl-5-(4-methylthiophenyl)-pyrrol-1-yl]-ethoxy}-phenyl)-propionic acid Calcium Salt [Calcium Salt of Formula (I)]									Serum triglycerides (mg/dl) Day 0 (Swiss albino mice; [2]): 119.2 ± 11.1 mg/dL; Serum triglycerides (mg/dl) Day 6 (Swiss albino mice; [2]): 38.8 ± 3.2 mg/dL; % Change Vs control (Swiss albino mice; Table 3, oral): −66.4 ± 2.5%; % Change Day 6 vs Day 0 (Swiss albino mice; [2]): −66.8 ± 2.5%
(S) 2-Ethoxy-3-(4-{2-[2-methyl-5-(4-methylthiophenyl)-pyrrol-1-yl]-ethoxy}-phenyl)-propionic acid L-arginine salt [L-arginine salt of Formula (I)]	91.6 ± 7.9	37.2 ± 2.1	−60.2 ± 3.9	−58.0 ± 4.2					
CCO[C@@H](Cc1ccc(OCCn2c(C)ccc2-c2ccc(SC)cc2)cc1)C(=O)O.OCCN1CCCC1 [Epolamine salt of Formula (I)]					110.5 ± 7.5	39.6 ± 3.8	−60.1 ± 2.6	−64.2 ± 2.3	
(S) 2-Ethoxy-3-(4-{2-[2-methyl-5-(4-methylthiophenyl)-pyrrol-1-yl]-ethoxy}-phenyl)-propionic acid benzylamine salt [Benzylamine salt of Formula (I)]	91.1 ± 10.8	36.5 ± 4.0	−60.2 ± 5.8	−57.9 ± 6.2					
CCO[C@@H](Cc1ccc(OCCn2c(C)ccc2-c2ccc(SC)cc2)cc1)C(=O)O.c1c[nH]cn1 [Imidazole salt of Formula (I), (S) 2-Ethoxy-3-(4-{2-[2-methyl-5-(4-methylthiophenyl)-pyrrol-1-yl]-ethoxy}-phenyl)-propionic acid imidazole salt]					110.5 ± 7.2	43.5 ± 2.5	−55.3 ± 3.6	−59.8 ± 3.2	
CCO[C@@H](Cc1ccc(OCCn2c(C)ccc2-c2ccc(SC)cc2)cc1)C(=O)O.c1ccc(CCNCc2ccccc2)cc1 [Benethamine salt of Formula (I), (S) 2-Ethoxy-3-(4-{2-[2-methyl-5-(4-methylthiophenyl)-pyrrol-1-yl]-ethoxy}-phenyl)-propionic acid Benethamine salt]	91.6 ± 6.4	56.0 ± 4.9	−41.6 ± 5.4	−38.3 ± 5.7					
(S) 2-Ethoxy-3-(4-{2-[2-methyl-5-(4-methylthiophenyl)-pyrrol-1-yl]-ethoxy}-phenyl)-propionic acid L-Lysine salt [L-lysine salt of Formula (I)]	91.2 ± 6.8	48.7 ± 3.3	−48.7 ± 3.6	−45.8 ± 3.8					
(S) 2-Ethoxy-3-(4-{2-[2-methyl-5-(4-methylthiophenyl)-pyrrol-1-yl]-ethoxy}-phenyl)-propionic acid Tromethamine salt [Tromethamine salt of Formula (I)]	91.2 ± 7.8	47.9 ± 4.9	−46.9 ± 8.5	−43.9 ± 9.0					
